In the supplement of paper PMC8671470:
Structures can show the parent of a compound that is named as a salt.

Assays:
Settings in all cases: 72 h
[1] = tested on: HL-60; experiment: cell viability (% survival relative to DMSO control); higher = less cytotoxic
How it was run: (§1)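 A rescreen of the full library used HL-60 cells in RPMI 1640 with 10% FBS on 384-well plates, run in duplicate at five tenfold concentrations (1–10,000 nM). Each screen included DMSO or 100 nM of one of three metabolic inhibitors and ran 72 h at 37 °C, 5% CO2. CellTiter-Glo viability was scaled between DMSO and 10 μM proteasome-inhibitor wells. Any area under the curve comes from four-parameter log-logistic fits with drc and PharmacoGx.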

[2] = tested on: HL-60; experiment: area under dose-response curve (viability, 1 nM-10 uM) (fraction (0-1)); higher = more sensitive
How it was run: as §1

[3] = tested on: BV-173
How it was run: (§2)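 In 384-well plates holding acoustically pre-printed compounds at five tenfold doses from 1 to 10,000 nM, in duplicate, fifteen myeloid leukaemia cell lines were grown in RPMI 1640 for 72 h at 37 °C with 5% CO2. Luminescent ATP viability was scaled between vehicle and a positive control at 10 µM. The IC50 was then taken from log-logistic dose–response fits with four parameters.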

[4] = tested on: HEL
How it was run: as §2

[5] = tested on: HL-60
How it was run: as §2

[6] = tested on: K-562
How it was run: as §2

[7] = tested on: KCL-22
How it was run: as §2

[8] = tested on: KG-1
How it was run: as §2

[9] = tested on: KU-812
How it was run: as §2

[10] = tested on: LAMA-84
How it was run: as §2

[11] = tested on: ML-2
How it was run: as §2

[12] = tested on: MOLM-13
How it was run: as §2

[13] = tested on: MV4-11
How it was run: as §2

[14] = tested on: Mono-Mac-6
How it was run: as §2

[15] = tested on: NOMO-1
How it was run: as §2

[16] = tested on: SHI-1
How it was run: as §2

[17] = tested on: THP-1
How it was run: as §2

[18] = tested on: myeloid leukemia patient primary cells Pat.10; experiment: area under dose-response curve (viability, 1 nM-10 uM) (fraction (0-1)); higher = more sensitive
Procedure: (§3)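 AUC (0–1, higher = more sensitive) of the 5-point dose–response (1 nM–10 µM, 72 h, CellTiter-Glo) in primary AML/CML patient mononuclear cells. 0.030103 is the floor for inactive compounds.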

[19] = tested on: myeloid leukemia patient primary cells Pat.11; experiment: as above
Procedure: as §3

[20] = tested on: myeloid leukemia patient primary cells Pat.12; experiment: as above
Procedure: as §3

[21] = tested on: myeloid leukemia patient primary cells Pat.13; experiment: as above
Procedure: as §3

[22] = tested on: myeloid leukemia patient primary cells Pat.14; experiment: as above
Procedure: as §3

[23] = tested on: myeloid leukemia patient primary cells Pat.15; experiment: as above
Procedure: as §3

[24] = tested on: myeloid leukemia patient primary cells Pat.1; experiment: as above
Procedure: as §3

[25] = tested on: myeloid leukemia patient primary cells Pat.2; experiment: as above
Procedure: as §3

[26] = tested on: myeloid leukemia patient primary cells Pat.3; experiment: as above
Procedure: as §3

[27] = tested on: myeloid leukemia patient primary cells Pat.4; experiment: as above
Procedure: as §3

[28] = tested on: myeloid leukemia patient primary cells Pat.5; experiment: as above
Procedure: as §3

[29] = tested on: myeloid leukemia patient primary cells Pat.6; experiment: as above
Procedure: as §3

[30] = tested on: myeloid leukemia patient primary cells Pat.7; experiment: as above
Procedure: as §3

[31] = tested on: myeloid leukemia patient primary cells Pat.8; experiment: as above
Procedure: as §3

[32] = tested on: myeloid leukemia patient primary cells Pat.9; experiment: as above
Procedure: as §3

Cc1cc(CS(=O)(=O)c2ccccc2)cc(OCc2ccc(CN3CCC[C@@H]3CO)cc2)c1 [PF 543 hydrochloride]
cell viability [%], [1]
Settings | 0.001 µM | 0.01 µM | 0.1 µM | 1 µM | 10 µM
co-treatment: AZD3965 100 nM | 95.8 | 101 | 100.5 | 95.55 | 96.1
co-treatment: DMSO vehicle | 99.4 | 100 | 103 | 99.8 | 103
co-treatment: GSK2194069 100 nM | 81.7 | 94.56 | 96.8 | 95.1 | 92.2
co-treatment: pictilisib 100 nM | 79.4 | 97.3 | 93.9 | 99.7 | 96.7

[2]
Settings | area under dose-response curve
co-treatment: AZD3965 100 nM | < 0.0301
co-treatment: DMSO vehicle | < 0.0301
co-treatment: GSK2194069 100 nM | < 0.0301
co-treatment: pictilisib 100 nM | < 0.0301

CS(=O)(=O)N1CCN(Cc2cc3nc(-c4cccc5[nH]ncc45)nc(N4CCOCC4)c3s2)CC1 [Pictilisib]
Settings | IC50 (cell viability) [µM] | area under dose-response curve
[3] | > 10 | –
[4] | > 10 | –
[5] | 0.0159 | –
[6] | 1.27 | –
[7] | > 10 | –
[8] | > 10 | –
[9] | > 10 | –
[10] | > 10 | –
[11] | 9.06 | –
[12] | 0.969 | –
[13] | 1.19 | –
[14] | > 10 | –
[15] | > 10 | –
[16] | 0.987 | –
[17] | > 10 | –
[18] | – | 0.456
[19] | – | 0.0959
[20] | – | < 0.0301
[21] | – | < 0.0301
[22] | – | 0.529
[23] | – | 0.439
[24] | – | 0.538
[25] | – | < 0.0301
[26] | – | 0.519
[27] | – | 0.294
[28] | – | 0.384
[29] | – | 0.0368
[30] | – | 0.507
[31] | – | 0.536
[32] | – | 0.257

CCC(C)(C)C(=O)O[C@H]1C[C@@H](C)C=C2C=C[C@H](C)[C@H](CC[C@@H]3C[C@@H](O)CC(=O)O3)[C@H]21 [Simvastatin]
Settings | IC50 (cell viability) [µM]
[3] | > 10
[4] | > 10
[5] | > 10
[6] | > 10
[7] | > 10
[8] | > 10
[9] | > 10
[10] | > 10
[11] | > 10
[12] | > 10
[13] | > 10
[14] | > 10
[15] | > 10
[16] | > 10
[17] | > 10

CCOC(=O)c1ccc(-c2ccc(OC(=O)N(C)Cc3cccc(-c4ccncc4)c3)cc2)cc1 [WWL 113]
cell viability [%], [1]
Settings | 0.001 µM | 0.01 µM | 0.1 µM | 1 µM | 10 µM
co-treatment: AZD3965 100 nM | 99.55 | 98.5 | 94 | 97.8 | 101
co-treatment: DMSO vehicle | 106 | 102 | 98.3 | 102.3 | 102
co-treatment: GSK2194069 100 nM | 99.6 | 96 | 86.5 | 97.09 | 101
co-treatment: pictilisib 100 nM | 101.2 | 103 | 85.6 | 96.7 | 101

CC/C=C\C[C@H]1C(=O)CC[C@@H]1CC(=O)OC [methyl jasmonate]
cell viability [%], [1]
Settings | 0.001 µM | 0.01 µM | 0.1 µM | 1 µM | 10 µM
co-treatment: AZD3965 100 nM | 98.2 | 106 | 100.7 | 105 | 106
co-treatment: DMSO vehicle | 101 | 99.7 | 97.6 | 102.5 | 102
co-treatment: GSK2194069 100 nM | 95.5 | 99.5 | 98.1 | 93.3 | 105
co-treatment: pictilisib 100 nM | 96.58 | 104 | 101 | 109 | 99.6

[2]
Settings | area under dose-response curve
co-treatment: AZD3965 100 nM | < 0.0301
co-treatment: DMSO vehicle | < 0.0301
co-treatment: GSK2194069 100 nM | < 0.0301
co-treatment: pictilisib 100 nM | < 0.0301
